Literature values as cited in PMC12697872, “Rethinking the AI Paradigm for Solubility Prediction of Drug‑Like Compounds with Dual‐Perspective Modeling and Experimental Validation” (Advanced Science, 2025).

Details: discarded ambiguous entries of DrugBank database; ref DrugBank database (version 5.1.12) 24; cited from earlier work

For CN(CCN1CCC(OC(=O)Nc2ccccc2-c2ccccc2)CC1)C(=O)c1ccc(CN2CCC(C(N)=O)CC2)cc1 [864750-70-9], the Experimental solubility is given as less than 1 mg/ml mg/mL.

Same assay, conditions: experimental aqueous solubility as logS, sheet "DrugBank" of Supplement 2; ref DrugBank; cited from earlier work

In order of falling ex_logS:
1. CC(C(=O)O)C(=O)O [Methylmalonic Acid]  0.7597
2. OC(O)C(Cl)(Cl)Cl [Chloral hydrate]  0.6807
3. CC(=O)Nc1ccc(O)cc1 [acetaminophen]  -1.02
4. CNC(=O)Oc1ccc2c(c1)[C@]1(C)CCN(C)[C@@H]1N2C [Physostigmine]  -1.55
5. CCN(CC)CCOC(=O)c1ccc(N)cc1 [procaine]  -1.78
6. CCOC(=O)c1ccc(N)cc1 [benzocaine]  -2.32
7. CCCNC(C)C(=O)Nc1ccccc1C (centres unmarked) [Prilocaine]  -2.61
8. O=C1CCC(N2C(=O)c3ccccc3C2=O)C(=O)N1 (centres unmarked) [Thalidomide]  -2.676
9. CC(=O)Oc1ccc2c3c1O[C@H]1[C@@H](OC(C)=O)C=C[C@H]4[C@@H](C2)N(C)CC[C@@]341 [Diamorphine]  -2.789
10. CC(OC(=O)NCC1(CC(=O)O)CCCCC1)OC(=O)C(C)C (centres unmarked) [Gabapentin enacarbil]  -2.819
11. CC1(C)S[C@@H]2[C@H](NC(=O)C(C(=O)O)c3ccccc3)C(=O)N2[C@H]1C(=O)O (some centres unmarked) [Carbenicillin]  -2.924
12. C[C@]12C[C@H](O)[C@H]3[C@@H](CCC4=CC(=O)CC[C@@]43C)[C@@H]1CC[C@@H]2C(=O)CO [corticosterone]  -3.24
13. Cc1ccc(/C(=C\CN2CCCC2)c2ccccn2)cc1 [Triprolidine]  -3.57
14. c1ccc2[nH]c(-c3cscn3)nc2c1 [Thiabendazole]  -3.605
15. CC(C)NCC(O)COc1cccc2ccccc12 (centres unmarked) [Propranolol]  -3.624
16. NC(=O)CCC/N=C(\c1ccc(Cl)cc1)c1cc(F)ccc1O [Progabide]  -3.674
17. CCCCC[C@H](O)/C=C/[C@H]1[C@H](O)CC(=O)[C@@H]1C/C=C\CCCC(=O)O [Dinoprostone]  -3.783
18. O=C(O)Cc1ccccc1Oc1ccc(Cl)cc1Cl [fenclofenac]  -3.85
19. CC(C)N(CCC(C(N)=O)(c1ccccc1)c1ccccn1)C(C)C (centres unmarked) [Disopyramide]  -3.879
20. C[C@]12C/C(=C/O)C(=O)C[C@@H]1CC[C@@H]1[C@@H]2CC[C@@]2(C)[C@H]1CC[C@]2(C)O [Oxymetholone]  -4.805

Same assay, conditions: experimental aqueous solubility as logS, sheet "DrugBank"; ref DrugBank database; cited from earlier work

In order of rising ex_logS:
1. C1CCC(C(CC2CCCCN2)C2CCCCC2)CC1 (centres unmarked) [Perhexiline]  -6.659
2. COc1cc(C)c(/C=C/C(C)=C/C=C/C(C)=C/C(=O)O)c(C)c1C [Acitretin]  -6.651
3. CC(C)n1c(/C=C/C(O)CC(O)CC(=O)O)c(-c2ccc(F)cc2)c2ccccc21 (centres unmarked) [Fluvastatin]  -5.952
4. CN1CCC(CN2c3ccccc3Sc3ccccc32)C1 (centres unmarked) [Methdilazine]  -5.93
5. CCC(=O)c1ccc2c(c1)N(CC(C)N(C)C)c1ccccc1S2 (centres unmarked) [Propiomazine]  -5.875
6. CNCCCC1c2ccccc2C=Cc2ccccc21 [Protriptyline]  -5.404
7. CCC(=O)O[C@]1(c2ccccc2)CCN(C)C[C@H]1CC [Betameprodine]  -5.285
8. COc1cc(N)c(Cl)cc1C(=O)NC1CCN(CCCOc2ccc(F)cc2)CC1OC (centres unmarked) [Cisapride]  -5.235
9. Cc1nnc2n1-c1ccc(Cl)cc1C(c1ccccc1Cl)=NC2 [Triazolam]  -4.879
10. COc1cc2c(Nc3ccc(Br)cc3F)ncnc2cc1OCC1CCN(C)CC1 [Vandetanib]  -4.774
11. COC(=O)OCOc1c2n(ccc1=O)N([C@@H]1c3ccccc3SCc3c1ccc(F)c3F)[C@@H]1COCCN1C2=O [Baloxavir marboxil]  -4.581
12. CN1CCN(C2=Nc3cc(Cl)ccc3Nc3ccccc32)CC1 [Clozapine]  -4.442
13. O=C(CCCN1CCC(O)(c2ccc(Cl)cc2)CC1)c1ccc(F)cc1 [Haloperidol]  -4.4289
14. CN(C)CCCN1c2ccccc2Sc2ccccc21 [Promazine]  -4.302
15. CCOC(=O)C1=C(C)NC(C)=C(C(=O)OC)C1c1cccc(Cl)c1Cl (centres unmarked) [Felodipine]  -4.29
16. CC(C)Cc1ccc(C(C)C(=O)O)cc1 (centres unmarked) [Ibuprofen]  -3.992
17. CN(C)CCC=C1c2ccccc2COc2ccccc21 [Doxepin]  -3.9465
18. C[C@@H]1O[C@@H](OC[C@H]2O[C@@H](Oc3c(-c4ccc(O)c(O)c4)oc4cc(O)cc(O)c4c3=O)[C@H](O)[C@@H](O)[C@@H]2O)[C@H](O)[C@H](O)[C@H]1O [Rutin]  -3.689
19. CC(=O)OCC(=O)[C@@]12N=C(C)O[C@@H]1C[C@H]1[C@@H]3CCC4=CC(=O)C=C[C@]4(C)[C@H]3[C@@H](O)C[C@@]12C [Deflazacort]  -3.612
20. [H]/N=C(\N/C(=N/[H])Nc1ccc(Cl)cc1)NC(C)C [Proguanil]  -3.211
21. Nc1nnc(-c2cccc(Cl)c2Cl)c(N)n1 [Lamotrigine]  -3.178
22. CN(C)[C@@H]1C(O)=C(C(N)=O)C(=O)[C@@]2(O)C(O)=C3C(=O)c4c(O)cccc4[C@@](C)(O)[C@H]3[C@H](O)[C@@H]12 [Oxytetracycline]  -3.168
23. Cc1ccc(C(=O)c2ccc(CC(=O)O)n2C)cc1 [Tolmetin]  -3.064
24. NC(=O)N/N=C/c1ccc([N+](=O)[O-])o1 [Nitrofural]  -2.975
25. Nc1c2c(nc3ccccc13)CCCC2 [Tacrine]  -2.961
26. COc1cc(NS(=O)(=O)c2ccc(N)cc2)nc(OC)n1 [Sulfadimethoxine]  -2.957
27. CO[C@H]1/C=C/O[C@@]2(C)Oc3c(C)c(O)c4c(O)c(c(/C=N/N5CCN(C)CC5)c(O)c4c3C2=O)NC(=O)/C(C)=C\C=C\[C@H](C)[C@H](O)[C@@H](C)[C@@H](O)[C@@H](C)[C@H](OC(C)=O)[C@@H]1C [Rifampicin]  -2.769
28. Nc1ccc(S(=O)(=O)Nc2ccnn2-c2ccccc2)cc1 [Sulfaphenazole]  -2.321
29. CN1C(=O)CCS(=O)(=O)C1c1ccc(Cl)cc1 (centres unmarked) [Chlormezanone]  -2.039
30. Cyanocobalamin  -2.035
31. NC[C@H](CC(=O)O)c1ccc(Cl)cc1 [Arbaclofen]  -2.01
32. CCn1cc(C(=O)O)c(=O)c2cc(F)c(N3CCNCC3)nc21 [Enoxacin]  -1.97
33. COc1c(O[C@@H]2O[C@H](CO)[C@@H](O)[C@H](O)[C@H]2O)cc2c(c1OC)-c1ccc(SC)c(=O)cc1[C@@H](NC(C)=O)CC2 [Thiocolchicoside]  -1.751
34. C[C@H](Cn1cnc2c(N)ncnc21)OCP(=O)(O)O [Tenofovir]  -1.3311
35. Nc1ccn([C@@H]2O[C@H](CO)[C@@H](O)C2(F)F)c(=O)n1 [Gemcitabine]  -1.236
36. CN1CC[C@]23c4c5ccc(O)c4O[C@H]2C(=O)CC[C@@]3(O)[C@H]1C5 [Oxymorphone]  -1.099
37. OC[C@H]1O[C@@H](n2cnc3c2NC=NC[C@H]3O)C[C@@H]1O [Pentostatin]  -0.9514
38. NNCCc1ccccc1 [Phenelzine]  -0.6703
39. CCC1(C)CC(=O)NC1=O (centres unmarked) [Ethosuximide]  -0.5564
40. O=C(O)[C@@H](O)c1ccccc1 [(S)-Mandelic acid]  0.07541
41. Nc1ncnc2c1ncn2[C@@H]1O[C@H](COP(=O)(O)OP(=O)(O)OP(=O)(O)O)[C@@H](O)[C@H]1O [ATP]  0.2948
